# Source: patent US20250214969A1, “PROTEIN DEGRADERS AND USES THEREOF” (Kymera Therapeutics, Inc., priority 2022, published 2025)
# Target: T1, truncated His-MBP-Tev-KLHDC2 (residues 1-363) (Homo sapiens, UniProt Q9Y2U9)
# T1 construct: truncated His -MBP-Tev-KLHDC2 (residues 1-363) purified from E. coli; made in house; host or cells: E. coli
# T1 sequence (Q9Y2U9 1-363): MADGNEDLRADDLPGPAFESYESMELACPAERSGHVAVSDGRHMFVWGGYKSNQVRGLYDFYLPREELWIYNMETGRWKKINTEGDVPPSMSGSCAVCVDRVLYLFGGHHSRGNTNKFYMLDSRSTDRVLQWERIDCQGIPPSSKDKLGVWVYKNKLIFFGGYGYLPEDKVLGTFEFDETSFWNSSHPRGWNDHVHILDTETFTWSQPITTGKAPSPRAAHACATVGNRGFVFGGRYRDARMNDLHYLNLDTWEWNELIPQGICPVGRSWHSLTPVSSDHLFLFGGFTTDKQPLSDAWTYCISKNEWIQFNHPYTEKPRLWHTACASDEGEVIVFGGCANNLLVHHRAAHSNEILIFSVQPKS
# Assay: KLHDC2 HTRF binding assay
# Settings: 1 nM KLHDC2 (residues 1-363), fluorescein-labeled diglycine peptide probe
row,Structure (SMILES),IC50 [µM]
1,O=C(O)Cn1cc(N2CC[C@]3(CCN(c4cccnc4)C3)C2=O)ccc1=O [I-1],> 5
2,O=C(O)Cn1cc(N2CC[C@@]3(CCN(c4cccnc4)C3)C2=O)ccc1=O [I-2],0.5 to 5
3,O=C(O)Cn1cc(NC(=O)[C@H]2CCCN(c3cncc([N+](=O)[O-])c3)C2)ccc1=O [I-4],< 0.05
4,COc1cccc2c(N3CCC[C@H](C(=O)Nc4ccc(Cl)c(CC(=O)O)c4)C3)cncc12 [I-5],0.05 to 0.5
5,COc1cccc2c(N3CCC[C@H](C(=O)Nc4ccc(F)c(CC(=O)O)c4)C3)cncc12 [I-6],< 0.05
6,O=C(O)Cc1cc(NC(=O)[C@H]2CCCN(c3cncc4ccccc34)C2)ccc1Cl [I-7],< 0.05
7,COc1cccc2c(N3CCC[C@H](C(=O)Nc4ccc(=O)n(CC(=O)O)c4)C3)cncc12 [I-9],< 0.05
8,COc1cncc(-c2cccc(C(=O)Nc3ccc4c(c3)CC(=O)O4)c2)c1 [I-13],> 5
9,O=C(O)Cn1cc(N2CC[C@@]3(CCCN(c4cccnc4)C3)C2=O)ccc1=O [I-14],> 5
10,O=C(O)Cn1cc(N2CC[C@]3(CCCN(c4cccnc4)C3)C2=O)ccc1=O [I-15],0.05 to 0.5
11,O=C(O)Cn1cc(N2C[C@]3(CCCN(c4cccnc4)C3)CC2=O)ccc1=O [I-16],> 5
12,O=C(O)Cn1cc(N2C[C@@]3(CCCN(c4cccnc4)C3)CC2=O)ccc1=O [I-17],> 5
13,CNc1cncc(N2CCC[C@H](C(=O)Nc3ccc(Cl)c(CC(=O)O)c3)C2)c1 [I-18],0.05 to 0.5
14,CNc1cncc(N2CCC[C@H](C(=O)Nc3ccc(F)c(CC(=O)O)c3)C2)c1 [I-19],0.05 to 0.5
15,COc1cncc(N2CCC[C@H](C(=O)Nc3ccc(Cl)c(CC(=O)O)c3)C2)c1 [I-20],0.05 to 0.5
16,CCc1cncc(N2CCC[C@H](C(=O)Nc3ccc(Cl)c(CC(=O)O)c3)C2)c1 [I-21],0.05 to 0.5
17,CCc1cncc(N2CCC[C@H](C(=O)Nc3ccc(F)c(CC(=O)O)c3)C2)c1 [I-23],< 0.05
18,COc1cncc(N2CCC[C@H](C(=O)Nc3ccc(F)c(CC(=O)O)c3)C2)c1 [I-24],0.05 to 0.5
19,O=C(O)Cc1cc(NC(=O)[C@@H]2CCCN(c3cccnc3)C2)ccc1F [I-27],> 5
20,O=C(O)Cn1cc(NC(=O)[C@H]2CCCN(c3cccnc3)CC2)ccc1=O [I-28],0.5 to 5
21,O=C(O)Cn1cc(NC(=O)[C@@H]2CCCN(c3cccnc3)CC2)ccc1=O [I-29],0.5 to 5
22,O=C(O)Cc1cc(NC(=O)[C@@H]2CCCN(c3cccnc3)C2)ccc1Cl [I-30],> 5
23,O=C(O)Cc1cc(NC(=O)[C@H]2CCCN(c3cccnc3)C2)ccc1F [I-33],0.05 to 0.5
24,O=C(O)Cc1cc(NC(=O)[C@H]2CCCN(c3cccnc3)C2)ccc1Cl [I-35],0.05 to 0.5
25,O=C(O)Cn1cc(N2CCC3(CCN(c4cccnc4)CC3)C2=O)ccc1=O [I-38],> 5
26,CCc1cncc(N2CCC[C@H](C(=O)Nc3ccc(=O)n(CC(=O)O)c3)C2)c1 [I-39],< 0.05
27,CNc1cncc(N2CCC[C@H](C(=O)Nc3ccc(=O)n(CC(=O)O)c3)C2)c1 [I-40],< 0.05
28,O=C(O)Cn1cc(NC(=O)[C@H]2CCCN(c3cncc4ccccc34)C2)ccc1=O [I-41],< 0.05
29,COc1cncc(N2CCC[C@H](C(=O)Nc3ccc(=O)n(CC(=O)O)c3)C2)c1 [I-45],< 0.05
30,CC(C)c1cc(=O)n(CC(=O)O)cc1NC(=O)[C@H]1CCCN(c2cccnc2)C1 [I-46],0.5 to 5

# Other lines, results leading:
row,IC50 [µM],Structure (SMILES)
1,0.5 to 5,O=C(O)Cn1cc(NC(=O)c2cccc(-c3cccnc3)c2C(F)(F)F)ccc1=O [I-10]
2,0.5 to 5,O=C(O)Cn1cc(NC(=O)[C@@H]2Cc3ccccc3N(c3cccnc3)C2)ccc1=O [I-11]
3,> 5,O=C(O)Cn1cc(NC(=O)[C@H]2Cc3ccccc3N(c3cccnc3)C2)ccc1=O [I-12]
4,> 5,COc1cncc(-c2cccc(C(=O)Nc3ccc(O)c(CC(=O)O)c3)c2)c1 [I-22]
5,0.05 to 0.5,N#Cc1cc(=O)n(CC(=O)O)cc1NC(=O)c1cccc(-c2cccnc2)c1 [I-25]
6,0.05 to 0.5,N#Cc1cc(=O)n(CC(=O)O)cc1NC(=O)[C@H]1CCCN(c2cccnc2)C1 [I-26]
7,> 5,Cn1cc(NC(=O)c2cccc(-c3cccnc3)c2)cc(C(=O)O)c1=O [I-31]
8,0.5 to 5,O=C(O)Cn1cc(NC(=O)[C@H]2CN(c3cccnc3)Cc3ccccc32)ccc1=O [I-32]
9,> 5,O=C(O)Cn1cc(NC(=O)[C@@H]2CN(c3cccnc3)Cc3ccccc32)ccc1=O [I-34]
10,> 5,CN(CC(C)(C)C(=O)Nc1ccc(=O)n(CC(=O)O)c1)c1cccnc1 [I-36]
11,> 5,O=C(Nc1ccnc(C(=O)O)c1)c1cccc(-c2cccnc2)c1 [I-37]
12,0.5 to 5,O=C(O)Cn1cc(NC(=O)c2cccc(-c3cccnc3)c2Cl)ccc1=O [I-42]
13,> 5,CN(CC1(C(=O)Nc2ccc(=O)n(CC(=O)O)c2)CC1)c1cccnc1 [I-43]
14,< 0.05,COc1cncc(-c2cccc(C(=O)Nc3ccc(=O)n(CC(=O)O)c3)c2)c1 [I-47]
15,0.5 to 5,O=C(O)Cn1cc(NC(=O)[C@H]2CCN(c3cccnc3)C2)ccc1=O [I-48]

# Target: T1, truncated His-MBP-Tev-KLHDC2 (residues 1-363)
# Assay: KLHDC2 FP competition binding assay
# Settings: 15 nM KLHDC2 (residues 1-363), 10 nM fluorescein-labeled diglycine peptide probe, read-out: KLHDC2 binding Human FP: average external IC50
row,Structure (SMILES),IC50 [µM]
1,O=C(O)Cn1cc(N2CC[C@]3(CCN(c4cccnc4)C3)C2=O)ccc1=O [I-1],> 5
2,O=C(O)Cn1cc(N2CC[C@@]3(CCN(c4cccnc4)C3)C2=O)ccc1=O [I-2],> 5
3,O=C(O)Cn1cc(NC(=O)[C@H]2CCCN(c3cncc([N+](=O)[O-])c3)C2)ccc1=O [I-4],< 0.05
4,COc1cccc2c(N3CCC[C@H](C(=O)Nc4ccc(Cl)c(CC(=O)O)c4)C3)cncc12 [I-5],0.05 to 0.5
5,COc1cccc2c(N3CCC[C@H](C(=O)Nc4ccc(F)c(CC(=O)O)c4)C3)cncc12 [I-6],0.05 to 0.5
6,O=C(O)Cc1cc(NC(=O)[C@H]2CCCN(c3cncc4ccccc34)C2)ccc1Cl [I-7],0.05 to 0.5
7,COc1cccc2c(N3CCC[C@H](C(=O)Nc4ccc(=O)n(CC(=O)O)c4)C3)cncc12 [I-9],< 0.05
8,COc1cncc(-c2cccc(C(=O)Nc3ccc4c(c3)CC(=O)O4)c2)c1 [I-13],> 5
9,O=C(O)Cn1cc(N2CC[C@@]3(CCCN(c4cccnc4)C3)C2=O)ccc1=O [I-14],> 5
10,O=C(O)Cn1cc(N2CC[C@]3(CCCN(c4cccnc4)C3)C2=O)ccc1=O [I-15],> 5
11,O=C(O)Cn1cc(N2C[C@]3(CCCN(c4cccnc4)C3)CC2=O)ccc1=O [I-16],> 5
12,O=C(O)Cn1cc(N2C[C@@]3(CCCN(c4cccnc4)C3)CC2=O)ccc1=O [I-17],> 5
13,CNc1cncc(N2CCC[C@H](C(=O)Nc3ccc(Cl)c(CC(=O)O)c3)C2)c1 [I-18],0.5 to 5
14,CNc1cncc(N2CCC[C@H](C(=O)Nc3ccc(F)c(CC(=O)O)c3)C2)c1 [I-19],0.5 to 5
15,COc1cncc(N2CCC[C@H](C(=O)Nc3ccc(Cl)c(CC(=O)O)c3)C2)c1 [I-20],0.5 to 5
16,CCc1cncc(N2CCC[C@H](C(=O)Nc3ccc(Cl)c(CC(=O)O)c3)C2)c1 [I-21],0.5 to 5
17,CCc1cncc(N2CCC[C@H](C(=O)Nc3ccc(F)c(CC(=O)O)c3)C2)c1 [I-23],0.05 to 0.5
18,COc1cncc(N2CCC[C@H](C(=O)Nc3ccc(F)c(CC(=O)O)c3)C2)c1 [I-24],0.05 to 0.5
19,O=C(O)Cc1cc(NC(=O)[C@@H]2CCCN(c3cccnc3)C2)ccc1F [I-27],> 5
20,O=C(O)Cn1cc(NC(=O)[C@H]2CCCN(c3cccnc3)CC2)ccc1=O [I-28],> 5
21,O=C(O)Cn1cc(NC(=O)[C@@H]2CCCN(c3cccnc3)CC2)ccc1=O [I-29],> 5
22,O=C(O)Cc1cc(NC(=O)[C@@H]2CCCN(c3cccnc3)C2)ccc1Cl [I-30],> 5
23,O=C(O)Cc1cc(NC(=O)[C@H]2CCCN(c3cccnc3)C2)ccc1F [I-33],0.5 to 5
24,O=C(O)Cc1cc(NC(=O)[C@H]2CCCN(c3cccnc3)C2)ccc1Cl [I-35],0.5 to 5
25,O=C(O)Cn1cc(N2CCC3(CCN(c4cccnc4)CC3)C2=O)ccc1=O [I-38],> 5
26,CCc1cncc(N2CCC[C@H](C(=O)Nc3ccc(=O)n(CC(=O)O)c3)C2)c1 [I-39],0.05 to 0.5
27,CNc1cncc(N2CCC[C@H](C(=O)Nc3ccc(=O)n(CC(=O)O)c3)C2)c1 [I-40],0.05 to 0.5
28,O=C(O)Cn1cc(NC(=O)[C@H]2CCCN(c3cncc4ccccc34)C2)ccc1=O [I-41],< 0.05
29,COc1cncc(N2CCC[C@H](C(=O)Nc3ccc(=O)n(CC(=O)O)c3)C2)c1 [I-45],0.05 to 0.5
30,CC(C)c1cc(=O)n(CC(=O)O)cc1NC(=O)[C@H]1CCCN(c2cccnc2)C1 [I-46],> 5

# Further lines, results first:
row,IC50 [µM],Structure (SMILES)
1,> 5,O=C(O)Cn1cc(NC(=O)c2cccc(-c3cccnc3)c2C(F)(F)F)ccc1=O [I-10]
2,0.5 to 5,O=C(O)Cn1cc(NC(=O)[C@@H]2Cc3ccccc3N(c3cccnc3)C2)ccc1=O [I-11]
3,> 5,O=C(O)Cn1cc(NC(=O)[C@H]2Cc3ccccc3N(c3cccnc3)C2)ccc1=O [I-12]
4,> 5,COc1cncc(-c2cccc(C(=O)Nc3ccc(O)c(CC(=O)O)c3)c2)c1 [I-22]
5,0.5 to 5,N#Cc1cc(=O)n(CC(=O)O)cc1NC(=O)c1cccc(-c2cccnc2)c1 [I-25]
6,0.5 to 5,N#Cc1cc(=O)n(CC(=O)O)cc1NC(=O)[C@H]1CCCN(c2cccnc2)C1 [I-26]
7,> 5,Cn1cc(NC(=O)c2cccc(-c3cccnc3)c2)cc(C(=O)O)c1=O [I-31]
8,> 5,O=C(O)Cn1cc(NC(=O)[C@H]2CN(c3cccnc3)Cc3ccccc32)ccc1=O [I-32]
9,> 5,O=C(O)Cn1cc(NC(=O)[C@@H]2CN(c3cccnc3)Cc3ccccc32)ccc1=O [I-34]
10,> 5,CN(CC(C)(C)C(=O)Nc1ccc(=O)n(CC(=O)O)c1)c1cccnc1 [I-36]
11,> 5,O=C(Nc1ccnc(C(=O)O)c1)c1cccc(-c2cccnc2)c1 [I-37]
12,> 5,O=C(O)Cn1cc(NC(=O)c2cccc(-c3cccnc3)c2Cl)ccc1=O [I-42]
13,> 5,CN(CC1(C(=O)Nc2ccc(=O)n(CC(=O)O)c2)CC1)c1cccnc1 [I-43]
14,0.5 to 5,COc1cncc(-c2cccc(C(=O)Nc3ccc(=O)n(CC(=O)O)c3)c2)c1 [I-47]
15,> 5,O=C(O)Cn1cc(NC(=O)[C@H]2CCN(c3cccnc3)C2)ccc1=O [I-48]
